Measured values as given in PMC6753678, “Fueling Open Innovation for Malaria Transmission-Blocking Drugs: Hundreds of Molecules Targeting Early Parasite Mosquito Stages” (Frontiers in Microbiology, 2019).

Key:
HepG2 cells = assay: HepG2 cytotoxicity assay; details: HepG2 cytotoxicity unified across screens; >25 set to 25.00
Outline: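 Cells are plated at 2,500 per well on compound-treated plates in MEM containing 10% fetal bovine serum and 1% NEAA, then incubated 48 h at 37°C.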

[1] = tested on: P. falciparum late stage (stages IV-V) gametocytes; set-up: method as in Almela et al 2016; details: P. falciparum late stage gametocyte ATP assay, TCAMS screen; ref Almela et al 2016; read-out: Pf GCT ATP IC50; cited from earlier work
[2] = tested on: P. falciparum late stage (stages IV-V) gametocytes; assay: P. falciparum late stage gametocyte ATP depletion assay (Pf GC-ATP); details: 1: YES; 0: NO; >10-fold selectivity over cytotoxicity

SMILES	Unified cytotox (HepG2 cells) [µM]	IC50 [1] [µM]	Is compound selective in assay? Pf GC-ATP active? [2]
CCCCCCC(N)c1ccc(OCCCOc2ccc(C(N)CCCCCC)cc2)cc1.Cl (stereo not drawn) [TCMDC-137621]	1.90	0.0533	1 (1: YES)
CCCCCOc1ccc(C(=NC)N(CCCCC)CCCCC)c2ccccc12.I [TCMDC-137703]	6.30	0.89	0 (0: NO)
CCOc1ccc2ccccc2c1CNCCCCCCNCc1c(OCC)ccc2ccccc12.CS(=O)(=O)O [TCMDC-137791]	1.75	0.7	0 (0: NO)
Br.c1cc(C2=NC3CCCCC3N2)ccc1OCCCCCOc1ccc(C2=NC3CCCCC3N2)cc1 (stereo not drawn) [TCMDC-137802]	3.74	0.28	1 (1: YES)
COc1ccc2c(c1CNCCCCCCNCc1c(OC)ccc3c1CCCC3)CCCC2 [TCMDC-137817]	3.83	0.42	0 (0: NO)
COc1cc2ccccc2c(OC)c1CNCCCCCCNCc1c(OC)cc2ccccc2c1OC.CS(=O)(=O)O [TCMDC-137843]	4.25	0.32	1 (1: YES)
CN(CCCNCc1cccc2ccccc12)CCCNCc1cccc2ccccc12.Cl [TCMDC-137905]	5.72	0.23	1 (1: YES)
COCCCNC(=S)NN=C(C)c1ccccn1 [TCMDC-137907]	17.00	0.16	1 (1: YES)
Cl.c1ccc2c(CNCCCN3CCN(CCCNCc4c5ccccc5cc5ccccc45)CC3)c3ccccc3cc2c1 [TCMDC-137909]	6.28	0.11	1 (1: YES)
Cl.c1ccc2c(NCCCCCCNc3ccnc4ccccc34)ccnc2c1 [TCMDC-137913]	16.40	0.96	1 (1: YES)
Cl.c1ccc2c(c1)cc(CNCCCN1CCN(CCCNCc3cc4ccccc4c4ccccc34)CC1)c1ccccc12 [TCMDC-137914]	13.70	1.11	1 (1: YES)
Cl.c1ccc(CN2CCN(CCCCNc3c4ccccc4nc4ccccc34)CC2)cc1 [TCMDC-138009]	9.92	0.79	1 (1: YES)
COc1ccc2nc3cc(Cl)ccc3c(NCCCCNc3c4ccc(Cl)cc4nc4ccc(OC)cc34)c2c1 [TCMDC-138218]	14.47	0.2	1 (1: YES)
Cc1nc(-c2cccc(Nc3ccnc4cc(-c5nccs5)ccc34)c2)no1.Cl [TCMDC-138334]	7.62	0.3	1 (1: YES)
Cc1cc(NCCc2ccccc2)nc(NC(=N)Nc2ccccc2Cl)n1 [TCMDC-138370]	13.60	4.87	0 (0: NO)
CS(=O)(=O)CCNCc1nc(-c2ccc3c(=O)[nH]cnc3c2)cs1 [TCMDC-138539]	4.20	2.68	0 (0: NO)
Cl.O=C(NCCCCN1CCC(c2ccc3c(c2OCCO)CCCC3)CC1)c1ccc2oc(-c3ccc(C(F)(F)F)cc3)cc2c1 [TCMDC-138771]	6.59	0.63	1 (1: YES)
C=C(C)Cn1cc(C2CCN(CCN3CCC(CNC(=O)c4ccc(-c5ccc(C#N)cc5)cc4)CC3)CC2)c2ccccc21 [TCMDC-138854]	3.70	2.93	0 (0: NO)
O=C(NCCCCN1CCC(c2c[nH]c3ccc(-c4ccccc4)cc23)CC1)c1ccc(-c2ccccc2)cc1.O=C(O)C(=O)O [TCMDC-139064]	9.40	1.83	0 (0: NO)
